From patent publication US20100240040A1, “METHOD FOR SCREENING FOR SELECTIVE MODULATOR OF THE NF-KB PATHWAY ACTIVATION” (INSTITUT PASTEUR, priority 2007, published 2010)
Where a SMILES comes first, the peptide text is derived from it.

Experiments:
NF-κB pathway = assay: NF-κB inhibition assay (β-galactosidase reporter) in 70Z/3-C3 cells; type: cell-based; conditions: pre-B 70Z3 lymphocytes activated with PMA, IL-1 or LPS; similar for the stimuli; read-out: IC50 of inhibition of the NF-kB pathway
Description: 4.5×10^5 70Z/3-C3 cells in 450 μl of 10% FCS-RPMI (Invitrogen) were incubated with 0-20 μM peptide BA-DR NLM or BA-NLM. After 2 h at 37° C., 200 μl of cell samples were transferred in duplicate to a 96-well micro titer plate. One well was treated for 4 h with either 15 μg/ml LPS, 20 ng/ml IL1-β or 100 ng/ml PMA. A control well was left untreated. After 4 h at 37° C., cells were centrifuged at 400×g for 5 min at room temperature, the pellets were washed three times with cold PBS (200 μl), and the cells were lysed in 100 μl of lysis buffer (25 mM tris-phosphate buffer at pH7.8 containing 8 mM MgCl2, 1 mM dithioerythreitol, 1% Triton X-100, 15% glycerol and a protease inhibitor mixture (Roche Applied Science, ref. 1836145)). The lysate was centrifuged at 1000×g for 20 min at 4° C., and supernatant was kept on ice before performing the β-galactosidase assay. β-galactosidase assays were performed on 50 μl of the supernatant and in an assay mix containing 4 μl of Galacton-star chemiluminescent substrate and 196 μl of reaction buffer (Clonetech). The activity was measured with a plate luminometer (Berthold).

spCC2-LZ (MOD of NEMO) = target: T1, spCC2-LZ (MOD of NEMO) (Mus musculus, UniProt O88522); assay: Fluorescence anisotropy binding of labelled peptide to spCC2-LZ; conditions: labelled peptide 10 μM, increasing spCC2-LZ; read-out: dissociation constant for spCC2-LZ
T1 construct: spCC2-LZ, synthetic polypeptide subdomain CC2-LZ; made in house; host or cells: chemical synthesis
T1 sequence (O88522 253-336): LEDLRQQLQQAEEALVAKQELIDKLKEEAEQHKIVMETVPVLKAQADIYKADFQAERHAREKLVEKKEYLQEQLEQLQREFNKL
Description: Anisotropy measurements were performed with a QuantaMaster® fluorometer (PTI), equipped with polarizing filters for excitation and emission, and using a photomultiplier tube in the L-configuration. All experiments were carried out in a microcuvette (60 μl) at 22° C., with excitation and emission wavelengths at 495 and 513 nm. The band pass of the excitation and emission wavelengths was 2 and 4 nm, respectively. Steady-state fluorescence anisotropy, expressed as millianisotropy units was measured as described Agou et al., 2004a. All measurements were carried out in a 20 mM isoionic buffer pH 8 (10 mM acetic acide, 10 mM MES, 20 mM Tris), containing 20 mM KCl. Each data point is the result of 20 recording taken over a 2-min period. To analyse whether DR NLM binds the MOD of NEMO, fluorescent labelled BA-DR NLM (10 μM) was incubated with an increasing concentrations of spCC2-LZ and the complex formation was monitored by fluorescence polarization (P) and results are expressed as anisotropy (A) according to the formula A=2P/(3-P). The concentration of spCC2-LZ was determining by amino acid analysis (Vinolo et al; 2006). Data points were fitted to the binding isotherm equation which gives a dissociation constant of 17 μM.

IC50 (NF-κB pathway): 0.9 µM
Kd (spCC2-LZ (MOD of NEMO)): 17 µM
SMILES: CC[C@H](C)[C@H](NC(=O)[C@H](CC(=O)O)NC(=O)[C@H](C)NC(=O)[C@H](CCC(N)=O)NC(=O)[C@H](C)NC(=O)[C@H](CCCCN)NC(=O)[C@H](CC(C)C)NC(C)=O)C(=O)N[C@@H](Cc1ccc(O)cc1)C(=O)N[C@@H](CCCCN)C(=O)N[C@@H](C)C(=O)N[C@@H](CCCNC(=N)N)C(=O)N[C@@H](Cc1ccccc1)C(=O)N[C@@H](CCC(N)=O)C(=O)N[C@@H](C)C(=O)N[C@@H](CCC(=O)O)C(=O)N[C@@H](CCCNC(=N)N)C(=O)N[C@@H](Cc1c[nH]cn1)C(=O)N[C@@H](C)C(=O)N[C@@H](CCCNC(=N)N)C(=O)N[C@@H](CCC(=O)O)C(=O)N[C@@H](CCCCN)C(N)=O [DR NLM] (Ac-LKAQADIYKARFQAERHAREK-NH2; N-terminus and C-terminus assumed)
